# Reference: ChEMBL document CHEMBL1201862, “PubChem BioAssay data set” (2004)
# The source made the active and inactive calls.
# How the values were obtained:
# [1] = target: Voltage-gated N-type calcium channel alpha-1B subunit/Amyloid beta A4 precursor protein-binding family A member 1 (Homo sapiens, UniProt Q00975+Q02410); type: protein assay
# Beta-galactosidase = Beta-galactosidase (Escherichia coli, UniProt Q8VNN2); experiment: detection-enzyme interference by beta-gal modulators – biochemical, E. coli enzyme, set 3, artefact control for CCR6 antagonist project, dose response (AID 504712); type: functional
# Nonstructural protein 1 = Nonstructural protein 1 (Influenza A virus, UniProt Q194T2); type: functional, Influenza A virus (A/California/07/2009(H1N1))
# fMet-Leu-Phe receptor = target: T1, fMet-Leu-Phe receptor (Homo sapiens, UniProt P21462); experiment: formyl peptide receptor binders – dose response (AID 519); type: functional
# T1 sequence (P21462 whole entry): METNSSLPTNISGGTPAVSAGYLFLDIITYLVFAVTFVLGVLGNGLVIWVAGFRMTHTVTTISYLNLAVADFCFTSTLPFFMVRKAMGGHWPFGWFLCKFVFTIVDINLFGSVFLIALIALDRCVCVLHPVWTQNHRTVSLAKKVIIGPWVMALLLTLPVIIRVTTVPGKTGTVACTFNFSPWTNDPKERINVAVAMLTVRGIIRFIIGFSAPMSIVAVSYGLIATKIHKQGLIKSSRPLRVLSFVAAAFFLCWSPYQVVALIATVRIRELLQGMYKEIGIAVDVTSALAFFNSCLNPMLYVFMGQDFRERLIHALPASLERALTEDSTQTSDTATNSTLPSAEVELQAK
# Cytochrome P450 2C19 = Cytochrome P450 2C19 (Homo sapiens, UniProt P33261); experiment: Cytochrome panel assay with activity outcomes. Panel member name: p450-cyp2c19 Compounds with AC50 equal or less than 10 uM are considered active; type: functional; conditions: read-out: AC50
# Cytochrome P450 3A4 = Cytochrome P450 3A4 (Homo sapiens, UniProt P08684);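 also: CYP3A4 tested as one member of a cytochrome P450 panel screen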
# Chain of Cytochrome P450 3A4 (P08684 whole entry): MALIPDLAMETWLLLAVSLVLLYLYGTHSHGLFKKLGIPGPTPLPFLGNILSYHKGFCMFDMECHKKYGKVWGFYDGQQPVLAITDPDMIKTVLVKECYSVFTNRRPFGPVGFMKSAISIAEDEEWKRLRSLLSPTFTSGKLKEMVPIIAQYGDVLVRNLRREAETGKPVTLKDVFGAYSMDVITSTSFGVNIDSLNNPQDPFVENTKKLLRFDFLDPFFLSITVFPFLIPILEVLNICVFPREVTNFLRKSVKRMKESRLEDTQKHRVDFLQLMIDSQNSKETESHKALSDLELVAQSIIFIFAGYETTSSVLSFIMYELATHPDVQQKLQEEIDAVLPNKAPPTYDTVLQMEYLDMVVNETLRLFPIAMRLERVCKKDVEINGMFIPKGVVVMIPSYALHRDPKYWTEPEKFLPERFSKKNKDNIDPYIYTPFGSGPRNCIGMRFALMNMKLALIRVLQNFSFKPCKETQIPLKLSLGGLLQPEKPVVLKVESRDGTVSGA
# [2] = target: G-protein coupled receptor 55 (Homo sapiens, UniProt Q9Y2T6); experiment: selective activators of receptor GPR55 – imaging, U2OS cells, beta-arrestin-GFP redistribution, primary screen (AID 1961); type: functional
# Chain of G-protein coupled receptor 55 (Q9Y2T6 whole entry): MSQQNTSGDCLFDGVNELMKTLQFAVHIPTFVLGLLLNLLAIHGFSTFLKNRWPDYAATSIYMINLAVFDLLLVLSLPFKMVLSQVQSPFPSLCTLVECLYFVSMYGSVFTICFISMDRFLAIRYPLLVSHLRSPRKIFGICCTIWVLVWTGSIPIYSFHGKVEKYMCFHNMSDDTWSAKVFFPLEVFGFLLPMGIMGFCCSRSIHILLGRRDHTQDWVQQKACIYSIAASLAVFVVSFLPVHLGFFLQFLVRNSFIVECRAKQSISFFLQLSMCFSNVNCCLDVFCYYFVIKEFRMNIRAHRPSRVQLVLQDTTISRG
# Aminopeptidase N = target: T2, Aminopeptidase N (Plasmodium falciparum FcB1/Columbia, UniProt O96935); experiment: malaria alanyl aminopeptidase activity blockers – biochemical, fluorogenic H-Leu-NHMec substrate, 1536-well (AID 1445); parameters: species or system Plasmodium falciparum 3D7, 3D7
# T2 sequence (O96935 whole entry): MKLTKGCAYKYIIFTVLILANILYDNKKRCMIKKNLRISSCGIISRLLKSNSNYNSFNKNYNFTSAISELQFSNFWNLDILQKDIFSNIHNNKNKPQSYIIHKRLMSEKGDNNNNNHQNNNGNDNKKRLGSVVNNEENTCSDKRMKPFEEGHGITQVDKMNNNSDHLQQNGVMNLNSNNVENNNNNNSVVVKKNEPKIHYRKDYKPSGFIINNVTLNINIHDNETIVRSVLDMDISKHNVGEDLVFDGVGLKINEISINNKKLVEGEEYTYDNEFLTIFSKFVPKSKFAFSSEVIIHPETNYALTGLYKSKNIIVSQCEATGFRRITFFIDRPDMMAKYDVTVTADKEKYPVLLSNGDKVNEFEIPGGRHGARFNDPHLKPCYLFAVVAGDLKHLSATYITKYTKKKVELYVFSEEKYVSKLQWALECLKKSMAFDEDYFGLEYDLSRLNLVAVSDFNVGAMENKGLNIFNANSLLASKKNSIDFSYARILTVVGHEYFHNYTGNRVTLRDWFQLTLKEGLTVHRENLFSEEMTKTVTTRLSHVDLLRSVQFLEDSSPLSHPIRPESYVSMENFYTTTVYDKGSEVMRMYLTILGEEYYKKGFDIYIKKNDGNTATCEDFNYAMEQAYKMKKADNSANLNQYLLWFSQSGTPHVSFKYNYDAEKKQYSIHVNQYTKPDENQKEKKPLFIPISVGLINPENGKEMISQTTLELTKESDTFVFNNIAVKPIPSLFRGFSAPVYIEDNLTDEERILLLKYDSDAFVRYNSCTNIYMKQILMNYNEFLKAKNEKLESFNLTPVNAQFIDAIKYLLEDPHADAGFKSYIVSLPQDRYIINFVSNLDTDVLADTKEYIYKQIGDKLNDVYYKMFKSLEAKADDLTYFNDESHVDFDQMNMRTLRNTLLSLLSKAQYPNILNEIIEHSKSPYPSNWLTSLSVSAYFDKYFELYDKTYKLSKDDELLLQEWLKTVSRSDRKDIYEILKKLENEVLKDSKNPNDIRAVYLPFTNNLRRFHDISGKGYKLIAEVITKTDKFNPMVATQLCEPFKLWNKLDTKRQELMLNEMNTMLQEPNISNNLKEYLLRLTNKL
# [3] = target: T3, RNA-binding protein pos-1 (Caenorhabditis elegans, UniProt G5EF15); experiment: disruptors of C. elegans POS-1 RNA interaction – biochemical, fluorescence polarization, dose response (AID 1964);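 also: purified POS-1 fused to maltose binding protein made in E. coli; potency of compounds blocking POS-1 binding to fluorescent RNA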
# T3 sequence (G5EF15 whole entry): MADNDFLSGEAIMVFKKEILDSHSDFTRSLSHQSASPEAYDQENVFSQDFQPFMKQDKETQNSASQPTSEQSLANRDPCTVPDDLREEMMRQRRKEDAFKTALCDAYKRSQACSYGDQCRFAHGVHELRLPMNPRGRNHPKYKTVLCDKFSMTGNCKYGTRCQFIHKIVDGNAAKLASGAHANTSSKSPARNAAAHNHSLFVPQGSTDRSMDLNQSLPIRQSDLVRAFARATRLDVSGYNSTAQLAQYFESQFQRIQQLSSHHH
# [4] = target: T4, Zinc finger protein mex-5 (Caenorhabditis elegans, UniProt Q9XUB2); experiment: potency of MEX-5 RNA-binding blockers – biochemical, C. elegans, fluorescence polarization, dose response (AID 1960)
# T4 sequence (Q9XUB2 whole entry): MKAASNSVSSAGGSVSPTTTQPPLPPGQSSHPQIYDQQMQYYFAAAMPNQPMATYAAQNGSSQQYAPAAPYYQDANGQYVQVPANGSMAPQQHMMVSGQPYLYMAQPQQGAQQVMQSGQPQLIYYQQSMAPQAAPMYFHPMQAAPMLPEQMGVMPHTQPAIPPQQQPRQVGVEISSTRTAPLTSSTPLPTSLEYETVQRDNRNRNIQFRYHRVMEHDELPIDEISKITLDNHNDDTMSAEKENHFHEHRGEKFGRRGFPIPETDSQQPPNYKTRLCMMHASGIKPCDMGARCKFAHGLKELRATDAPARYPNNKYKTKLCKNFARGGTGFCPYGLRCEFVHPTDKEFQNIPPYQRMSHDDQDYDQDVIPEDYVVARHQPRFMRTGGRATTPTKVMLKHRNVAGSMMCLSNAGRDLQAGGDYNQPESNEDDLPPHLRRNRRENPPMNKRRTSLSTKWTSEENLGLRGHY
# [5] = viability loss of HPDE-C7K cells – cell-based, fluorescence, HTS, primary screen (AID 431); type: functional; conditions: Homo sapiens
# [6] = Luminescence Cell-Based Dose Retest to Confirm Inhibitors of Cancer Stem Cells. [Related pubchem assays (depositor defined):AID2717, AID2721]; type: functional; conditions: Homo sapiens
# [7] = HPDE-C7 pancreatic duct cell viability loss – fluorescence, HTS (AID 430); type: functional, cell-based; conditions: Homo sapiens
# [8] = target: T5, Ubiquitin-conjugating enzyme E2 N (Homo sapiens, UniProt P61088); type: functional;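 also: Dose-response confirmation in a TR-FRET assay detecting UBC13-driven polyubiquitin chain formation, inhibition measured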
# T5 sequence (P61088 whole entry): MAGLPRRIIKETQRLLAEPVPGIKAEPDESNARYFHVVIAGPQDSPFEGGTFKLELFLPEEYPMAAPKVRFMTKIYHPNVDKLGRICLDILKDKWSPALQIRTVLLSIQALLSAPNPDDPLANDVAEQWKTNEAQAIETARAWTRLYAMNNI
# Paired box protein Pax-8 = Paired box protein Pax-8 (Homo sapiens, UniProt Q06710); experiment: PAX8 transcriptional activity inhibition in RMG-I – RMG-I cells, luciferase, cherry-pick, dose response (AID 687027); type: functional, cell-based;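 also: luciferase reporter driven by Pax8 target thyroperoxidase promoter measured by SteadyGlo luminescence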
# Chain of Paired box protein Pax-8 (Q06710 whole entry, the tested form may be a part): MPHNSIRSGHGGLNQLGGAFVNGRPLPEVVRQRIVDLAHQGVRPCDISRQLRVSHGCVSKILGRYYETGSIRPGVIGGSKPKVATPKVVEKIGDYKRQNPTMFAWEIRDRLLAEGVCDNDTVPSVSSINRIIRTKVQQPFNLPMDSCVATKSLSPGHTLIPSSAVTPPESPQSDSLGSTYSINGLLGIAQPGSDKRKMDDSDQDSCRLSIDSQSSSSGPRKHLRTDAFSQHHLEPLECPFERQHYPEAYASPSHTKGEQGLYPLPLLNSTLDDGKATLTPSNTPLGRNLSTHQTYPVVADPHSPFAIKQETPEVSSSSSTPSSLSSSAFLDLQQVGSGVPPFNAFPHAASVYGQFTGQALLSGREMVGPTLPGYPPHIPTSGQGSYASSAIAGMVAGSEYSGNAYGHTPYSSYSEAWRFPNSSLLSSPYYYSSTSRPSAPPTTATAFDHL
# [9] = target: Disintegrin and metalloproteinase domain-containing protein 17 (Homo sapiens, UniProt P78536); experiment: inhibition of ADAM17 substrate cleavage – biochemical, quenched FRET substrate, counter-screen for ADAM10 exosite inhibitor project, dose response (AID 743253)
# [10] = target: T6, Polyadenylate-binding protein 1 (Homo sapiens, UniProt P11940); experiment: MLLE domain peptide-binding blockers, IC50 – biochemical, fluorescence polarization, FITC-PAM2 peptide, dose response (AID 602259); type: functional; conditions: read-out: IC50_Mean
# T6 sequence (P11940 whole entry, the tested form may be a part): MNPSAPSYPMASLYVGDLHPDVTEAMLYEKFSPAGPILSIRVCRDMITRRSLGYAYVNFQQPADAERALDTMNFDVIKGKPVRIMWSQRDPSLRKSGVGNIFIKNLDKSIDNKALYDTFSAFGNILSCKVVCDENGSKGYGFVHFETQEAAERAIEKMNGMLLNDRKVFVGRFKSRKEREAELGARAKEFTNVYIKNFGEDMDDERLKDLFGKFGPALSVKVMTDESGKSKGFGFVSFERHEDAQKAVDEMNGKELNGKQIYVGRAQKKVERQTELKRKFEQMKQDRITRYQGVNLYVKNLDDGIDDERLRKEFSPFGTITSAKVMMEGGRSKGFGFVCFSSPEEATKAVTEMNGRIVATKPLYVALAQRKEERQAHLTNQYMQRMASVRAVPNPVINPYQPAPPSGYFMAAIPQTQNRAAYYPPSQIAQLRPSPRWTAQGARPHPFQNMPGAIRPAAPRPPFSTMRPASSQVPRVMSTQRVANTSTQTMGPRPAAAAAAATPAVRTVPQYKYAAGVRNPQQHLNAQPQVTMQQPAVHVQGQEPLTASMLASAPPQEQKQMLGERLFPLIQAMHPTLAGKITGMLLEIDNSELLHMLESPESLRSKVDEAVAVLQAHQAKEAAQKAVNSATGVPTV
# [11] = target: T6, Polyadenylate-binding protein 1; experiment: MLLE binding blockers, Cy5 peptide tracer – biochemical, fluorescence polarization, Cy5-PAM2 peptide, secondary, miRNA deadenylation inhibitor project, dose response (AID 602260); type: functional; conditions: read-out: IC50_Mean
# [12] = HepG2 cell cytotoxicity, dose response, cytotoxicity control for non-replicating M. tuberculosis project (AID 489018); type: functional; conditions: Mycobacterium tuberculosis
# [13] = Vero E6 cell cytotoxicity, dose response, cytotoxicity control for non-replicating M. tuberculosis project, secondary assay (AID 492998); type: functional, VeroE6; conditions: Vero C1008
# [14] = THP-1 cell cytotoxicity, dose response, cytotoxicity control for non-replicating M. tuberculosis project (AID 489025); type: functional
# cells = type: functional
# [15] = Luminescence Cell-Based Dose Response HTS to Identify Activators of Luciferase Translation or Activity in H4 […] Cells. [Related pubchem assays: 1829 (Project Summary), 1814 (Primary HTS)]; type: functional
# [16] = Luminescence Cell-Based Dose Confirmation HTS to Identify Activators of 5'UTR Stem-Loop Driven Alpha-Synuclein mRNA Translation in H4 Neuroglioblastoma Cells. [Related pubchem assays: 1829 (Project Summary), 1814 (Primary HTS)]; type: functional
# H4 = experiment: Luminescence Cell-Based Dose Response HTS to Identify Activators of 5'UTR Stem-Loop Driven Prion Protein mRNA Translation in H4 Neuroglioblastoma Cells. [Related pubchem assays: 1829 (Project Summary), 1814 (Primary HTS)]; type: functional; conditions: Homo sapiens
# Chain of Voltage-gated N-type calcium channel alpha-1B subunit/Amyloid beta A4 precursor protein-binding family A member 1 (Q00975 whole entry): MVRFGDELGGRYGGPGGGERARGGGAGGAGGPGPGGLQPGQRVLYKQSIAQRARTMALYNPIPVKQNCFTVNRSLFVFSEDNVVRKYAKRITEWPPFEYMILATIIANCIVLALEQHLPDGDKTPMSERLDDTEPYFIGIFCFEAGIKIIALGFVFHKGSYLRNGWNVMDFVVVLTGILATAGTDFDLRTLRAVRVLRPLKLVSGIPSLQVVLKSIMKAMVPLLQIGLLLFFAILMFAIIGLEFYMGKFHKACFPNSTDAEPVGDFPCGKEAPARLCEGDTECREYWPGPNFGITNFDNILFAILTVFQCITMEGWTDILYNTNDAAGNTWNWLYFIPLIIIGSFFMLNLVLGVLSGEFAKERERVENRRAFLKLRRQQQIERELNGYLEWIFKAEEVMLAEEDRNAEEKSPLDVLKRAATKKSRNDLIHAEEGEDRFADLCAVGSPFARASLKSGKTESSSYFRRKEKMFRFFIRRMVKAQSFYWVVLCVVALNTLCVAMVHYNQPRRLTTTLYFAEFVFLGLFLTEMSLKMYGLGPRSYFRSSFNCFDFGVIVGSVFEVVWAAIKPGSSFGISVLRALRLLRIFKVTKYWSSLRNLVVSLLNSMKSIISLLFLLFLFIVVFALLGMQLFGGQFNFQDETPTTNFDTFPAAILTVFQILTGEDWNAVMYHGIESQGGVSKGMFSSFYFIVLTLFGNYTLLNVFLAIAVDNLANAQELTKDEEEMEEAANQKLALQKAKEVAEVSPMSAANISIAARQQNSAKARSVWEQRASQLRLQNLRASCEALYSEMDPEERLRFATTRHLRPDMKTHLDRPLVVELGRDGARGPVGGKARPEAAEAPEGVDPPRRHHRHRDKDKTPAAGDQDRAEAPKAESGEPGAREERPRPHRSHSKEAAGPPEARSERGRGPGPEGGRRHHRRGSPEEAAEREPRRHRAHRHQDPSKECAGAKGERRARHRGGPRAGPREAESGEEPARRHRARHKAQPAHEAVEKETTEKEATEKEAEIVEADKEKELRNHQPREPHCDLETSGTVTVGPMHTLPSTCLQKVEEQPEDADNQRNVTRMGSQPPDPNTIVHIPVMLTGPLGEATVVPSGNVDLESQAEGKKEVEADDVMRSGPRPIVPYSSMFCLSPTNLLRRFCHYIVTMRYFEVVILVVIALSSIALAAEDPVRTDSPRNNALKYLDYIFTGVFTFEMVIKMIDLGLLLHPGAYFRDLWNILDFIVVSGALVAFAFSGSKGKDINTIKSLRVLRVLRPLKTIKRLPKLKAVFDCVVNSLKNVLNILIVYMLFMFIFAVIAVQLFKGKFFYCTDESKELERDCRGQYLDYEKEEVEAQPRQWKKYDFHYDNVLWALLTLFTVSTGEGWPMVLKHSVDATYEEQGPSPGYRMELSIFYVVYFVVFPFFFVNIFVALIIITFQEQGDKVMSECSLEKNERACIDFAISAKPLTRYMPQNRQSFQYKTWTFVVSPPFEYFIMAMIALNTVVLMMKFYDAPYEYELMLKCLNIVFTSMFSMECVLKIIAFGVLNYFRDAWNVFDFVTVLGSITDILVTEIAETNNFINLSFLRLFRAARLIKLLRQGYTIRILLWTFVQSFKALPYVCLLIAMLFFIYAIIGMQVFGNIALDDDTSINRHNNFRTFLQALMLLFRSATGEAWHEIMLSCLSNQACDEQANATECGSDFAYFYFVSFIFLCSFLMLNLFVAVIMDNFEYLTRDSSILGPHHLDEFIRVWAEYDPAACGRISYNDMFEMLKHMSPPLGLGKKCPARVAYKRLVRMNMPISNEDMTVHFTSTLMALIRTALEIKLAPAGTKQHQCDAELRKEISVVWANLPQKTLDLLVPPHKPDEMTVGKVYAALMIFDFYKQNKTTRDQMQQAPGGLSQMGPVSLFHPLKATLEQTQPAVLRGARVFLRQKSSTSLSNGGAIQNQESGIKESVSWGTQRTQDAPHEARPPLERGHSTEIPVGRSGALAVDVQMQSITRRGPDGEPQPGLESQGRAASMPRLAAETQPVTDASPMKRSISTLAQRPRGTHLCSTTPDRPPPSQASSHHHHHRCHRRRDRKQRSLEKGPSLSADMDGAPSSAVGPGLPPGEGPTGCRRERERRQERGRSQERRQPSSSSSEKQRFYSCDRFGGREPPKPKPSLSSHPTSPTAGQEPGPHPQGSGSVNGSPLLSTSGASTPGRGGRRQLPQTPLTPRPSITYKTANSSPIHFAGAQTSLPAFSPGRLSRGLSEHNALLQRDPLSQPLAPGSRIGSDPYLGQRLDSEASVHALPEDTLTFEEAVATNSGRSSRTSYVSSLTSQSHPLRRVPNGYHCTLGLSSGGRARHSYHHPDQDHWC
# Chain of Voltage-gated N-type calcium channel alpha-1B subunit/Amyloid beta A4 precursor protein-binding family A member 1 (Q02410 whole entry): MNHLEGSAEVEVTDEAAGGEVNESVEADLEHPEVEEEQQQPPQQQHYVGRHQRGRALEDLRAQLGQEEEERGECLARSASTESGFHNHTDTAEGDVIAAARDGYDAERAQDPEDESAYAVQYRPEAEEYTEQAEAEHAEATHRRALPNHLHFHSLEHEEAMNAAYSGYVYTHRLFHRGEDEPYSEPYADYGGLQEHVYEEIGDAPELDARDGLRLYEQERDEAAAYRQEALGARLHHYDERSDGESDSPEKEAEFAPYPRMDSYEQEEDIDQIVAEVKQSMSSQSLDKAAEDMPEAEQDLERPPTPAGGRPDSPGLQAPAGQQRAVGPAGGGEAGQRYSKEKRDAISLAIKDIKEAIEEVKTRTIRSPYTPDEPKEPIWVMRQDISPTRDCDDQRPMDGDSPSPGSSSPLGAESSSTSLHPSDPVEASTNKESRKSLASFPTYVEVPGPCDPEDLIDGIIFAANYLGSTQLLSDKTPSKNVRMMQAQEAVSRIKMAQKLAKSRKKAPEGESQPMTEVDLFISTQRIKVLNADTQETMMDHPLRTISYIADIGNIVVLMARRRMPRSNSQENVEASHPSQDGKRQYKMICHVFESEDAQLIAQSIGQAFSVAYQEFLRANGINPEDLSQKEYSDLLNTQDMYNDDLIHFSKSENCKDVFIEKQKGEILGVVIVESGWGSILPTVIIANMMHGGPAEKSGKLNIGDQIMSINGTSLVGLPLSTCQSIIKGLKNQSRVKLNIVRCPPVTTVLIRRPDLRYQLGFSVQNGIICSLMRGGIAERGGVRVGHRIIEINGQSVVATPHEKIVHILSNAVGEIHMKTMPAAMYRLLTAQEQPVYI
compound,measurement,setting,value
NS(=O)(=O)c1ccc(N/N=C/c2ccc3c(c2)OCO3)c([N+](=O)[O-])c1,IC50,[1],3.59 µM (active)
O=C(CSc1nccn1-c1ncc(C(F)(F)F)cc1Cl)c1ccc(Cl)cc1,IC50,Beta-galactosidase,> 66.6 µM (inactive)
CCN1C(=O)/C(=C2\SC(=S)N(CCCOC)C2=O)c2ccccc21,IC50,Nonstructural protein 1,62.7 µM (active)
same,Ki,fMet-Leu-Phe receptor,> 66.7 µM (inactive)
same,AC50,Cytochrome P450 2C19,11.2 µM (inconclusive)
same,AC50,Cytochrome P450 3A4,3.55 µM (inconclusive)
OCCNc1nc(O)c2c(ncn2Cc2ccccc2)n1,EC50,[2],> 32 µM (inactive)
Oc1[nH]c2ccc(Br)cc2c1N=Nc1nn[nH]n1,IC50,Aminopeptidase N,26.5 µM (active)
same,EC50,[3],14 µM (active)
same,EC50,[4],5.18 µM (active)
N#CC1=C(SCC(=O)c2ccc(Br)cc2)N=C2CCCC(O)=C2C1c1ccco1 (stereo not given),EC50,[5],5.58 µM (active)
same,AC50,[6],2.13 µM (active)
same,EC50,[7],4.34 µM (active)
NC(=O)c1nsc(C(=O)N(c2ccc(F)cc2)C(C(=O)NCC2CCCO2)c2c[nH]c3ccccc23)c1N (stereo not given),IC50,[8],> 20 µM (inactive)
O=c1[nH]c2ccccc2n1C1CCN(C(c2ccccc2OC(F)(F)F)c2nnnn2-c2ccc3c(c2)OCCO3)CC1 (stereo not given),AC50,Paired box protein Pax-8,4.52 µM (active)
same,IC50,[9],> 69.5 µM (inactive)
CCC1(C)Nc2ccccc2C(=O)N1O (stereo not given),EC50,[5],> 20 µM (not active)
same,EC50,[7],17.1 µM (active)
Cc1ccc(/C=C2\SC(=S)N(c3c(C)n(C)n(-c4ccccc4)c3=O)C2=O)cc1,IC50,Aminopeptidase N,120 µM (active)
same,IC50,[10],> 66 µM (inactive)
same,IC50,[11],> 66 µM (inactive)
C=CCOc1ccc(C2C(C(=O)c3cccs3)=C(O)C(=O)N2c2nnc(C)s2)cc1 (stereo not given),EC50,[3],10.8 µM (inconclusive)
same,Ki,fMet-Leu-Phe receptor,40.5 µM (inactive)
same,EC50,[4],3.06 µM (active)
Cc1ccc(Cl)cc1N1CCN(C(=O)c2ccc(NS(=O)(=O)c3c(C)noc3C)cc2)CC1,EC50,[5],16.7 µM (active)
same,EC50,[7],13.2 µM (active)
O=C(CNC(=O)c1ccccc1Cl)N/N=C/c1ccc([N+](=O)[O-])s1,CC50,[12],> 20 µM (active)
same,CC50,[13],13.6 µM (active)
same,CC50,[14],25 µM (active)
same,IC50,cells,36.6 µM (active)
CCOC(=O)C1=C(N)n2c(s/c(=C\c3ccco3)c2=O)=C(C(=O)OCC)C1c1ccco1 (stereo not given),EC50,[15],> 120 µM (not active)
same,EC50,[5],1.19 µM (active)
same,EC50,[16],> 120 µM (not active)
same,EC50,H4,> 120 µM (not active)
same,AC50,Cytochrome P450 3A4,28.2 µM (inconclusive)
same,EC50,[7],1.47 µM (active)
Cc1ccc(NC(=O)c2ccc([N+](=O)[O-])o2)c(C)c1,CC50,[12],> 20 µM (active)
same,CC50,[13],6.74 µM (active)
same,CC50,[14],15.4 µM (active)
same,IC50,cells,3.46 µM (active)
